Test results from US20260216239A1 (Arizona Board of Regents on Behalf of the University of …, priority 2020, published 2026).
Entries after “also recorded” stand apart in the source; their conditions may differ.

Key:
[1] = system: Echis leucogaster venom; assay: Thrombelastography in human plasma of venom procoagulant activity after isolated exposure of venom to compounds; assay type: biochemical
Description: Thrombelastographic analyses. The volumes of subsequently described plasmatic and other additives summed to a final volume of 360 μl. Samples were composed of 320 μl of plasma; 16.4 μl of PBS, 20 μl of 200 mM CaCl2), and 3.6 μl of PBS or venom mixture, which were pipetted into a disposable cup in a Thrombelastograph® hemostasis system (Model 5000, Haemonetics Inc., Braintree, MA, USA) at 37° C., and then rapidly mixed by moving the cup up against and then away from the plastic pin five times. The following viscoelastic parameters described previously (see, Nielsen V G (2019) J Thromb Thrombolysis 47, 73-79; Gessner G, et al., (2017) Eur J Pharmacol 815, 33-41; Nielsen V G, Wagner M T, Frank N (2020) Int J Mol Sci 21, 2082; Lazić D, Arsenijević A, Puchta R, Bugarčić ŽD, Rilak A (2016) Dalton Trans 45, 4633; Hanif M, et al., (2017) ChemPlusChem 82, 841-847) were measured: time to maximum rate of thrombus generation (TMRTG): this is the time interval (minutes) observed prior to maximum speed of clot growth; maximum rate of thrombus generation (MRTG): this is the maximum velocity of clot growth observed (dynes/cm^2/second); and total thrombus generation (TTG, dynes/cm^2), the final viscoelastic resistance observed after clot formation.
(§1) E. leucogaster. This venom was exposed to 0 or 100 μM CORM-2 in the presence of 0 or 100 μM RuCl3 in PBS for at least 5 minutes at room temperature prior to placement into plasma followed immediately with commencement of thrombelastographic analysis. The final concentration of this venom in plasma was 1 μg/ml.
(§2) Given the aforementioned, the experimental conditions utilized were: 1) V condition—venom in PBS; 2) Ru(II) condition—venom exposed to CORM-2; 3) Ru(III) condition—venom exposed to RuCl3; 4) Ru(II+III) condition—venom exposed to CORM-2 and RuCl3 simultaneously. After the 5 minute period at room temperature, 3.6 μl of one of these solutions was added to the plasma sample in the plastic thrombelastograph cup.
All venom solutions without or with chemical additions in isolation were added as a 1% addition to the plasma mix used in our thrombelastographic system (see, Nielsen, V. G.; et al., Biometals 2016, 29, 913-919; Nielsen, V. G.; Losada, P. A. Basic Clin. Pharmacol. Toxicol. 2017, 120, 207-212; Nielsen, V. G.; Frank, N. J. Thromb. Thrombolysis 2019, 47, 533-539; Nielsen, V. G.; Bazzell, C. M. J. Thromb. Thrombolysis 2017, 43, 203-208; Nielsen, V. G.; Matika, R. W. Hum. Exp. Toxicol. 2017, 36, 727-733; Nielsen, V. G.; et al., Toxins 2018, 10, 322; Nielsen, V. G.; et al., Biometals 2018, 31, 51-59; Nielsen, V. G.; Frank, N. et al., Biometals 2018, 31, 951-959; Nielsen, V. G.; et al., Toxins 2019, 11, 94; Nielsen, V. G.; Frank, N. Hum Exp. Toxicol. 2019, 38, 216-226; Nielsen, V. G. J. Thromb. Thrombolysis 2019, 48, 256-262; Nielsen, V. G.; et al., Blood Coagul. Fibrinolysis 2019, 30, 379-384; Nielsen, V. G. J. Thromb. Thrombolysis 2019, 47, 73-79; Gessner, G.; et al., Eur. J. Pharmacol. 2017, 815, 33-41). […] The thrombelastographic model describes coagulation kinetics with the following three variables: time to maximum thrombus generation (TMRTG, minutes—a measure of time to onset of coagulation), maximum rate of thrombus generation (MRTG, dynes/cm^2/s—a measure of the velocity of clot growth) and total thrombus generation (TTG, dynes/cm^2—a measure of clot strength).

[2] = system: human plasma; settings: cited from earlier work
[3] = system: Heloderma suspectum venom; assay: Thrombelastography in human plasma of venom procoagulant activity after isolated exposure of venom to compounds; assay type: biochemical; settings: venom 10 μg/ml in plasma
Description: The volumes of subsequently described plasmatic and other additives summed to a final volume of 360 μl. Samples were composed of 320 μl of plasma; 16.4 μl of PBS, 20 μl of 200 mM CaCl2), and 3.6 μl of PBS or venom mixture, which were pipetted into a disposable cup in a Thrombelastograph® hemostasis system (Model 5000, Haemonetics Inc., Braintree, MA, USA) at 37° C., and then rapidly mixed by moving the cup up against and then away from the plastic pin five times. The following viscoelastic parameters described previously (see, Nielsen, V. G. J Thromb Thrombolysis 2019, 47, 73-79; Gessner, G.; et al., Eur J Pharmacol 2017, 815, 33-41; Nielsen, V. G.; Wagner, M. T.; Frank, N. Int J Mol Sci 2020, 21, 2082; Lazid, D.; et al., Dalton Trans 2016, 45, 4633; Hanif, M.; et al., ChemPlusChem 2017, 82, 841-847) were measured: time to maximum rate of thrombus generation (TMRTG): this is the time interval (minutes) observed prior to maximum speed of clot growth; maximum rate of thrombus generation (MRTG): this is the maximum velocity of clot growth observed (dynes/cm2/second); and total thrombus generation (TTG, dynes/cm2), the final viscoelastic resistance observed after clot formation.
as §1, with “H. suspectum. This” for “E. leucogaster. This”, “or 1 mM CORM-3” for “or 100 μM CORM-2”, “was 10” for “was 1”
as §2, with “CORM-2 or CORM-3;” for “CORM-2;”, “CORM-2 or CORM-3” for “CORM-2”, “simultaneously; 5) Pt(II) condition—venom exposed to carboplatin; and 6) Pt+Ru condition—venom exposed to carboplatin and CORM-2.” for “simultaneously.”

[4] = 100 μM CORM-2, 100 μM RuCl3 or both, venom 1 μg/ml in plasma
[5] = venom exposed ≥5 min in PBS to 100 μM CORM-2, 100 μM RuCl3 or both, venom 1 μg/ml in plasma
[6] = 1 mM CORM-3, 100 μM RuCl3 or both
[7] = venom exposed 5 min to 100 μM RuCl3 in PBS, venom 1 μg/mL in plasma (Example III)

Compound | maximum rate of thrombus generation (MRTG) [1, 4] | time to maximum rate of thrombus generation (TMRTG) [1, 4] | procoagulant activity of venom ([1]; venom exposed 5 min to 100 μM CORM-2 in PBS, venom 1 μg/mL in plasma (Example III)) | procoagulant activity of venom [1, 5] | coagulation kinetics ([2]; 1 μM CORM-2) | plasmatic coagulation kinetics ([2]; up to 10 μM CORM-2 in PBS) | maximum rate of thrombus generation (MRTG) [3, 6] | time to maximum rate of thrombus generation (TMRTG) [3, 6] | total thrombus generation (TTG) [3, 6] | maximum rate of thrombus generation (MRTG) [1, 7] | time to maximum rate of thrombus generation (TMRTG) [1, 7] | total thrombus generation (TTG) [1, 7] | procoagulant activity of venom / coagulation kinetic parameters ([3]; venom exposed ≥5 min in PBS to 1 mM CORM-3, 100 μM RuCl3 or both) | human plasmatic coagulation ([2]; RuCl3 at or below 1 μM)
[C-]#[O+].[C-]#[O+].[C-]#[O+].[C-]#[O+].[C-]#[O+].[C-]#[O+].[Cl][Ru][Cl].[Cl][Ru][Cl] [CORM-2, tricarbonyldichlororuthenium(II) dimer] | decrease | increased; also recorded: significant increase | significantly attenuated | significantly decreased; also recorded: procoagulant activity inhibition | does not affect | no effect |  |  |  |  |  |  |  | 
Tricarbonylchloro(glycinato)ruthenium [CORM-3] |  |  |  |  |  |  | no change | significant increase | no change |  |  |  |  | 
[Cl][Ru]([Cl])[Cl] [RuCl3, ruthenium(III) chloride] | decrease | increase |  | significantly diminished |  |  |  |  |  | decrease | significant increase | decrease | no significant changes in any of the coagulation kinetic parameters | does not significantly affect
